# Assay results from patent US20220378794A1 (Sinopia Biosciences, Inc., priority 2019, published 2022).
# System: chronic low-dose MPTP lesioned non-human primate model of cognitive impairment
# Settings: levodopa 5-20 mg/kg (groups 6-8); in particular shorter delay periods DP1 and DP2; vs vehicle
compound,measurement,value
N[C@@H](Cc1ccc(O)c(O)c1)C(=O)O [levodopa],accuracy of VDR test,trend toward completing the VDR test with lower accuracy
